Measurements reported in patent publication US20040247586A1, “Parkin-associated complex for protecting post-mitotic neurons from excitotoxicity and uses thereof” (priority 2003, published 2004).

Tests used:
Type in all cases: cell-based, mouse
[1] = test system: E13.5 primary culture midbrain dopamine neurons; assay: parkin siRNA knockdown in primary midbrain dopamine neuron cultures with kainate or MPP+, immunofluorescence and Hoechst
Description: Dissociated midbrain cultures from El 3.5 mice were prepared as described (see Examples), transfected with 25 nM parkin or control (SERT) siRNA, and treated for 24 h with 250 μM kainate (A-X) or 1 μM MPP^+ (U—X). Cells were treated with Hoechst dye, fixed, and stained with rabbit polyclonal antibodies against either mouse parkin or cyclin E (green) and a rat monoclonal antibody against DAT (red). Immunostaining and apoptotic nuclei were visualized by fluorescence microscopy. Arrows point to examples of DAT-positive, cyclin-E-positive neurons (S) and DAT-positive neurons with apoptotic (Hoechst-positive) nuclei (I, J, and T). Total DAT-specific immunoreactivity (pixels), across 9 fields of view at 20×, was quantified in triplicate using Image software (Scion). Cytoplasmic parkin and cyclin E immunoreactivity (mean pixel density), in DAT-positive neurons, were similarly quantified. Data are shown as the mean±SEM. Statistical significance was assessed using one-way ANOVA with Tukey-Kramer post-hoc tests between each group. *=p<0.01; scale bar=150 μm
FIG. 10 further illustrates parkin/cyclin E interaction. […] Total RNA was extracted from granule cell cultures transfected with parkin or vector alone (see FIG. 5), and from frontal cortex tissue from parkin-deficient ARPD (or age-matched control; see FIG. 4). Cyclin E and β-actin mRNA levels were determined by quantitative RT-PCR, as described (Troy et al., Death in the balance: alternative participation of the caspase-2 and -9 pathways in neuronal death induced by nerve growth factor deprivation. J. Neurosci., 21:5007-16, 2001). (B-D) Both cyclin E immunoreactivity (p<0.05) and apoptosis (p<0.05) are increased in DAT-negative neurons of primary midbrain cultures treated with parkin siRNA (and kainate) relative to control siRNA (and kainate). However, the increased cyclin E immunoreactivity and apoptosis are both less marked than in DAT-positive neurons (p<0.05 for both measures). DAT-negative neurons in midbrain cultures were analyzed as in FIG. 7; DAT-positive neuron data is from FIG. 7. Cytoplasmic parkin and cyclin E immunoreactivity (mean pixel density) in DAT-negative neurons were quantified in triplicate, across 9 fields of view at 20×. Data are shown as the mean±SEM. Statistical significance was assessed using one-way ANOVA with Tukey-Kramer post-hoc tests between each group. *=p<0.01; **=p<0.05; scale bar=150 μm (E-J) Human parkin lentiviral vectors efficiently infect cultured murine midbrain dopamine neurons. E13.5 murine midbrain cultures were infected with lentiviruses encoding human parkin or control (GFP), as described in FIG. 8.
Cerebellar granule neurons from P6 mice were purified and transfected essentially as described (Scheiffele et al., Neuroligin expressed in nonneuronal cells triggers presynaptic development in contacting axons. Cell, 101:657-69, 2000). Dissociated cortical neurons from E16.5 mice were prepared and cultured as described (Scheiffele et al., Neuroligin expressed in nonneuronal cells triggers presynaptic development in contacting axons. Cell, 10 1:657-69, 2000). Primary midbrain cultures were prepared from E13.5 mouse embryos, as described (Hynes et al., Induction of midbrain dopaminergic neurons by Sonic hedgehog. Neuron, 15:35-44, 1995). Cells were treated for 24 h with or without kainate (250 or 500 μM as indicated; Sigma) or MPP^+ (1 or 10 μM as indicated; Sigma), stained for 20 min with 0.5 μg/ml Hoechst 33342 (Sigma), and visualized by fluorescence microscopy. For granule cell assays, at least 100 cells in two 20× fields were scored in duplicate for GFP and/or Hoechst signal. For immunohistochemistry, cell cultures were washed twice with PBS, and fixed for 20 min with 4% (w/v) paraformaldehyde. Cells were blocked for 1 h, at room temperature, with 3% (v/v) goat serum in PBS, and then incubated overnight, at 4° C., with specific antibodies, as indicated. […]

[2] = test system: dissociated cortical neurons from E16.5 mice; assay: parkin siRNA knockdown in kainate-treated primary cortical cultures, Western blot; settings: 25 nM siRNA, then 500 μM kainate 24 h
Description: (A) Insect cells were co-infected with baculoviruses expressing Flag-hSel-10 (110 kDa) or Flag-β-TrCP, GST-parkin, HA-CDK2, and either His6-cyclin E or His6-cyclin A1 (50 kDa). Cyclin-E- or cyclin-A1-associated complexes were isolated from cell lysates by nickel-agarose pull-downs, and analyzed by Western blotting, as indicated. (B) Flag-parkin-associated complexes (immunoprecipitated from HeLa cells transfected with Flag-tagged wild-type or T240R mutant parkin) were incubated with recombinant His6-cyclin E, HA-CDK2, E1, UbcH7, and ubiquitin, in the presence of an ATP-regenerating system. Recombinant His6-cyclin E generated in insect cells appears as a 51 -kDa band (arrow) and a minor contaminating species at 95-kDa. The asterisk indicates the position of an immunoglobulin heavy chain. (C) Parkin deficiency leads to cyclin E accumulation. Dissociated cortical neurons from E16.5 mice were cultured as described (see Examples), transfected with 25 nM parkin siRNA or control (DAT) siRNA, and then treated for 24 h with 500 μM kainate. […]
(§1) Cerebellar granule neurons from P6 mice were purified and transfected essentially as described (Scheiffele et al., Neuroligin expressed in nonneuronal cells triggers presynaptic development in contacting axons. Cell, 101:657-69, 2000). […] Cells were treated for 24 h with or without kainate (250 or 500 μM as indicated; Sigma) or MPP^+ (1 or 10 μM as indicated; Sigma), stained for 20 min with 0.5 μg/ml Hoechst 33342 (Sigma), and visualized by fluorescence microscopy. For granule cell assays, at least 100 cells in two 20× fields were scored in duplicate for GFP and/or Hoechst signal. […] Cells were washed, incubated for 1 h at room temperature with appropriately-labeled secondary antibodies, and visualized by fluorescence microscopy. For midbrain culture experiments, DAT-specific immunoreactivity (pixels), and cytoplasmic parkin and cyclin E immunoreactivity (mean pixel density), were quantified in triplicate, across nine fields of view, at 20× using Image software (Scion). […]

[3] = test system: cerebellar granule cells from P6 mice; assay: parkin overexpression in kainate-treated cerebellar granule cells, cyclin E by Western blot / immunofluorescence / RT-PCR; settings: kainate 500 μM for 24 h
Description: Cerebellar granule cells from post-natal day 6 (P6) mice were transfected in suspension with a bicistronic expression plasmid for wild-type parkin (along with GFP) or with vector (GFP alone), cultured at a density of 75,000 cells/cm^2 for 72 h, and then treated with or without 500 μM kainate for 24 h. (A) Cells were extracted directly with loading buffer, and lysates were analyzed by Western blotting, as indicated. (B-M) Granule cell cultures were fixed, stained with a specific antibody against cyclin E, and then visualized by fluorescence microscopy for cyclin E (red) and GFP (green). […]
as §1, with “microscopy.” for “microscopy. For midbrain culture experiments, DAT-specific immunoreactivity (pixels), and cytoplasmic parkin and cyclin E immunoreactivity (mean pixel density), were quantified in triplicate, across nine fields of view, at 20× using Image software (Scion).”

C[n+]1ccc(-c2ccccc2)cc1 [MPP^+, 1-Methyl-4-phenylpyridinium, reference compound]
DAT immunoreactivity after toxin ([1]; MPP+ 10 μM, control siRNA-treated cultures): led to a reduction in DAT immunoreactivity comparable to the kainate treatment

5′ UUCCAAACCGG AUGAGUGGdTdT 3′ [parkin siRNA]
cleaved-PARP, marker of apoptosis (Western blot) [2]: accumulation of cleaved poly (ADP-ribose) polymerase | cyclin E accumulation (Western blot) ([2]; vs control (DAT) siRNA): increased accumulation of cyclin E | parkin protein expression (Western blot) ([2]; vs control (DAT) siRNA): significantly reduced parkin expression | cyclin E accumulation in DAT-positive neurons ([1]; 25 nM siRNA, 250 μM kainate 24 h, vs control (SERT) siRNA): increased accumulation of cyclin E | apoptosis of DAT-positive neurons (Hoechst) ([1]; 25 nM siRNA, 250 μM kainate 24 h, vs control siRNA): increased apoptosis | DAT immunoreactivity in cell bodies and processes ([1]; 25 nM siRNA, in the presence of kainate, vs control siRNA): decreased DAT immunoreactivity | kainate sensitivity of DAT-negative neurons (cyclin E induction and apoptosis) ([1]; DAT-negative (primarily GABAergic) neurons vs DAT-positive population, p<0.05): did sensitize DAT-negative neurons to kainate toxicity, but to a significantly lesser extent | dopamine neuron sensitivity to MPP+ ([1]; MPP+ 10 μM): failed to alter dopamine neuron sensitivity | cyclin E or DAT immunoreactivity, siRNA alone ([1]; in the absence of kainate): failed to alter cyclin E or DAT immunoreactivity

C=C(C)[C@H]1CN[C@H](C(=O)O)[C@H]1CC(=O)O [kainate, kainic acid]
cyclin E accumulation in granule cell cultures after toxin [3]: led to the accumulation of cyclin E
